Data taken from PubChem BioAssay AID248 (DTP/NCI, 2004).
Values joined by “and” are separate entries in the source; they are usually repeats but may differ in a detail not shown here. Equal entries are not always repeated. Inconclusive results and toxic doses are left out. Cut-off read from the data, not from the text of the source: active = T/C of 150% or more; inactive = T/C below 125%.

Test system: L1210 leukemia ip in BDF1 mice, survival T/C
Experiment: NCI In Vivo Anticancer Drug Screen. Data for tumor model L1210 Leukemia (intraperitoneal) in B6D2F1 (BDF1) mice
Settings: endpoint: mean survival time, higher = longer survival
Outline: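 Tumor was transplanted into mice, which were then dosed with test compound or vehicle alone. Survival was recorded for each group, and the treated figure was expressed relative to the control figure.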

[1] = dose: 100.0 mg/kg/injection, schedule: Q04DX003 (ip), vehicle: saline
[2] = dose: 200.0 mg/kg/injection, schedule: Q04DX003 (ip), vehicle: saline
[3] = dose: 400.0 mg/kg/injection, schedule: Q04DX003 (ip), vehicle: saline
[4] = dose: 100.0 mg/kg/injection, schedule: Q01DX009 (ip), vehicle: Klucel (hydroxypropylcellulose) (HPC)
[5] = dose: 200.0 mg/kg/injection, schedule: Q01DX009 (ip), vehicle: Klucel (hydroxypropylcellulose) (HPC)
[6] = dose: 400.0 mg/kg/injection, schedule: Q01DX009 (ip), vehicle: Klucel (hydroxypropylcellulose) (HPC)
[7] = dose: 50.0 mg/kg/injection, schedule: Q01DX009 (ip), vehicle: saline with Tween-80
[8] = dose: 100.0 mg/kg/injection, schedule: Q01DX009 (ip), vehicle: saline with Tween-80
[9] = dose: 100.0 mg/kg/injection, schedule: Q04DX003 (ip), vehicle: saline with Tween-80
[10] = dose: 200.0 mg/kg/injection, schedule: Q01DX009 (ip), vehicle: saline with Tween-80
[11] = dose: 200.0 mg/kg/injection, schedule: Q04DX003 (ip), vehicle: saline with Tween-80
[12] = dose: 400.0 mg/kg/injection, schedule: Q01DX009 (ip), vehicle: saline with Tween-80
[13] = dose: 400.0 mg/kg/injection, schedule: Q04DX003 (ip), vehicle: saline with Tween-80
[14] = dose: 75.0 mg/kg/injection, schedule: Q01DX001 (ip), vehicle: saline
[15] = dose: 50.0 mg/kg/injection, schedule: Q04DX003 (ip), vehicle: saline

Measured: T/C

O=C1c2ccccc2C(=O)c2c(O)c(N3CCOCC3)cc(O)c21
inactive: dose: 0.25 mg/kg/injection, schedule: Q04DX003 (ip), vehicle: water 90 % of control | dose: 0.5 mg/kg/injection, schedule: Q04DX003 (ip), vehicle: water 102 % of control | dose: 1.0 mg/kg/injection, schedule: Q04DX003 (ip), vehicle: water 110 % of control | dose: 2.0 mg/kg/injection, schedule: Q04DX003 (ip), vehicle: water 100 % of control | dose: 4.0 mg/kg/injection, schedule: Q04DX003 (ip), vehicle: water 102 % of control | dose: 8.0 mg/kg/injection, schedule: Q04DX003 (ip), vehicle: water 100 % of control | dose: 16.0 mg/kg/injection, schedule: Q04DX003 (ip), vehicle: saline 102 % of control | dose: 16.0 mg/kg/injection, schedule: Q04DX003 (ip), vehicle: water 100 % of control | dose: 32.0 mg/kg/injection, schedule: Q04DX003 (ip), vehicle: saline 110 % of control | dose: 64.0 mg/kg/injection, schedule: Q04DX003 (ip), vehicle: saline 102 % of control

BrCC(Br)C(Br)CBr (stereo unspecified)
inactive: dose: 100.0 mg/kg/injection, schedule: Q01DX009 (ip), vehicle: saline 93 % of control | [1] 113 % of control | dose: 200.0 mg/kg/injection, schedule: Q01DX009 (ip), vehicle: saline 97 % of control | [2] 108 % of control | dose: 400.0 mg/kg/injection, schedule: Q01DX009 (ip), vehicle: saline 93 % of control | [3] 98 % of control

Cc1ccc([N+](=O)[O-])cc1NC(=O)Nc1cccc(O)c1
inactive: [4] 95 % of control | [5] 86 % of control | [6] 93 % of control

CC(C)(C)OC(=O)CNC(=O)CCl
inactive: [1] 96 % of control | [2] 95 % of control

CC(=O)CCC(=O)OC(C)(C)CN
inactive: [7] 102 % of control | dose: 50.0 mg/kg/injection, schedule: Q04DX003 (ip), vehicle: saline with Tween-80 99 % of control | [8] 103 % of control | [9] 87 % of control | [10] 107 % of control | [11] 91 % of control | [12] 103 % of control | [13] 96 % of control

CC(=O)Nc1ccc(S(=O)(=O)Nc2cc(C)ns2)cc1
inactive: [1] 92 % of control | [2] 96 % of control | [3] 100 % of control

CCOC(=O)C(C(C)=O)c1cc(NS(=O)(=O)c2ccccc2)ccc1O (stereo unspecified)
inactive: [8] 95 % of control | [10] 96 % of control | [12] 93 % of control

CN/N=C\c1cc2ccccc2c2ccccc12
inactive: dose: 50.0 mg/kg/injection, schedule: Q01DX001 (ip), vehicle: alcohol 89 % of control | dose: 100.0 mg/kg/injection, schedule: Q01DX001 (ip), vehicle: alcohol 89 % of control | dose: 200.0 mg/kg/injection, schedule: Q01DX001 (ip), vehicle: alcohol 100 % of control | dose: 400.0 mg/kg/injection, schedule: Q01DX001 (ip), vehicle: alcohol 89 % of control

CCCCCCCCCCCCCCCC(=O)NCC[N+](CC)(CC)Cc1ccc(C[N+](CC)(CC)CCNC(=O)CCCCCCCCCCCCCCC)cc1
inactive: [14] 98 % of control

Cc1cccc(N2C(N)=NC(N)=NC2(C)C)c1
inactive: dose: 25.0 mg/kg/injection, schedule: Q04DX003 (ip), vehicle: Klucel (hydroxypropylcellulose) (HPC) 103 % of control | dose: 50.0 mg/kg/injection, schedule: Q04DX003 (ip), vehicle: Klucel (hydroxypropylcellulose) (HPC) 124 % of control | [14] 101 % of control

Cc1ccc(-c2ccc3sc(C)[n+](C)c3c2)cc1
inactive: [1] 92 % of control

CC(=O)Nc1cccc(OC(=O)Nc2ccccc2F)c1
inactive: [4] 91 % of control | [5] 101 % of control | [6] 112 % of control

CC1(C)NC(=O)N(CCO)C1=O
inactive: [15] 111 % of control | [1] 111 % of control | [2] 100 % of control | [3] 101 % of control

COc1cc(OC)c(N=Nc2sc(N)nc2C)cc1Cl
inactive: [14] 92 % of control | dose: 150.0 mg/kg/injection, schedule: Q01DX001 (ip), vehicle: saline 97 % of control | dose: 300.0 mg/kg/injection, schedule: Q01DX001 (ip), vehicle: saline 94 % of control

NC(=O)N/C=C1\CCCOC1=O
inactive: [7] 98 % of control | [8] 93 % of control and 91 % of control | [9] 96 % of control | [10] 98 % of control and 109 % of control | [11] 104 % of control | [12] 109 % of control

C=C(Cl)CN(CC)CCO
inactive: [9] 98 % of control | [11] 102 % of control | [13] 108 % of control

O=C(NCCCl)Nc1cccnc1
inactive: dose: 6.25 mg/kg/injection, schedule: Q01DX009 (ip), vehicle: saline 104 % of control | dose: 12.5 mg/kg/injection, schedule: Q01DX009 (ip), vehicle: saline 101 % of control | dose: 12.5 mg/kg/injection, schedule: Q04DX003 (ip), vehicle: saline with Tween-80 102 % of control | dose: 25.0 mg/kg/injection, schedule: Q01DX009 (ip), vehicle: saline 105 % of control | dose: 25.0 mg/kg/injection, schedule: Q04DX003 (ip), vehicle: saline with Tween-80 96 % of control

CCN(CC)CCCC(C)Nc1ccnc(C)c1 (stereo unspecified)
inactive: dose: 10.0 mg/kg/injection, schedule: Q04DX003 (ip), vehicle: other 100 % of control | dose: 20.0 mg/kg/injection, schedule: Q04DX003 (ip), vehicle: other 95 % of control | dose: 40.0 mg/kg/injection, schedule: Q04DX003 (ip), vehicle: other 94 % of control

Nc1ncnc2[nH]c(=O)[nH]c12
inactive: dose: 25.0 mg/kg/injection, schedule: Q04DX003 (ip), vehicle: saline 105 % of control | [15] 102 % of control | [1] 98 % of control

CN(CCO)N=Nc1ccccc1Cl
inactive: dose: 25.0 mg/kg/injection, schedule: Q01DX009 (ip), vehicle: other 101 % of control | dose: 50.0 mg/kg/injection, schedule: Q01DX009 (ip), vehicle: other 100 % of control | dose: 100.0 mg/kg/injection, schedule: Q01DX009 (ip), vehicle: other 94 % of control

ClCCN(CCCl)c1ccc(CNCCCNCc2ccc(N(CCCl)CCCl)cc2)cc1
inactive: dose: 5.0 mg/kg/injection, schedule: Q01DX001 (ip), vehicle: carboxymethylcellulose (CMC) 105 % of control | dose: 10.0 mg/kg/injection, schedule: Q01DX001 (ip), vehicle: carboxymethylcellulose (CMC) 110 % of control | dose: 20.0 mg/kg/injection, schedule: Q01DX001 (ip), vehicle: carboxymethylcellulose (CMC) 103 % of control

O=C(Cc1ccccc1)Nc1cccc2ccccc12
inactive: [4] 101 % of control | [5] 95 % of control | [6] 91 % of control

CSc1cccc[n+]1C
inactive: [14] 104 % of control

CCCCCCCc1nc(/N=N/N(C)C)c(C(N)=O)[nH]1
inactive: [9] 101 % of control | [10] 91 % of control | [11] 98 % of control | [13] 110 % of control

O=C(OCCCl)C1C2CCC(O2)C1C(=O)OCCCl (stereo unspecified)
inactive: dose: 1.56 mg/kg/injection, schedule: Q04DX002 (ip), vehicle: Klucel (hydroxypropylcellulose) (HPC) 103 % of control

CC(=O)N(C)c1ccc(NC(=O)CCl)cc1
inactive: [4] 109 % of control | [5] 116 % of control
